This passage reports Activity, IC50 and inhibition results from ChEMBL document CHEMBL6083180, “Design, synthesis, and biological activity of D-bishomo-1α,25-dihydroxyvitamin D3 analogs and their crystal structures with the vitamin D nuclear receptor” (Eur J Med Chem, 2024).

Activity calls are given as the source filed them. The rule behind the calls is not given here.

For series [1], the system named is ROS 17/2.8. Briefly: Induction of transcriptional activity in rat ROS 17/2.8 cells transfected with CYP24 incubated for 16 hrs by Luciferase reporter gene assay. It counts as functional, cell-based. For orientation: Reporter assays use an easily measured gene product as a stand-in for the process of interest.
Series [2] concerns HCC4006. Briefly: Antiproliferative activity against human HCC4006 cells incubated for 72 hrs by SRB assay. Type of series: functional, cell-based. The following applies: HCC4006, 72 h.
Series [3] relates to HCC4006. Nature of the series: Antiproliferative activity against human HCC4006 cells assessed as inhibition of cell proliferation at 10 nM incubated for 72 hrs by SRB assay relative to control. Type of series: functional. On the technique in general: In SRB staining, fixed cells bind dye roughly in proportion to their protein.
The test system of series [4] is HCC4006. Briefly: Antiproliferative activity against human HCC4006 cells assessed as inhibition of cell proliferation at 1 nM incubated for 72 hrs by SRB assay relative to control. It counts as functional.
Series [5] relates to NCI-H1650. Nature of the series: Antiproliferative activity against human NCI-H1650 cells harboring EGFR mutation incubated for 72 hrs by SRB assay. Type of series: functional, cell-based.
Series [6] concerns NCI-H1975. Nature of the series: Antiproliferative activity against human NCI-H1975 cells harboring EGFR mutation incubated for 72 hrs by SRB assay. It counts as functional, cell-based.
Series [7] has as its system MCF7. Briefly: Antiproliferative activity against human MCF7 cells at 100 nM incubated for 72 hrs by SRB assay relative to control. It counts as functional.
Series [8] has as its system MDA-MB-231. Briefly: Antiproliferative activity against human MDA-MB-231 cells incubated for 72 hrs by SRB assay. It counts as functional, cell-based.
The test system of series [9] is CAL-51. Briefly: Antiproliferative activity against human CAL-51 cells incubated for 72 hrs by SRB assay. It counts as functional, cell-based.
Series [10] deals with MCF-10A. Briefly: Antiproliferative activity against human MCF-10A cells incubated for 72 hrs by SRB assay. It counts as toxicity, cell-based.
The subject of series [11] is MV4-11. Nature of the series: Antiproliferative activity against human MV4-11 cells at 100 nM incubated for 72 hrs by MTT assay relative to control. It counts as functional.
The test system of series [12] is MV4-11. Nature of the series: Antiproliferative activity against human MV4-11 cells at 1000 nM incubated for 72 hrs by MTT assay relative to control. Type of series: functional. For orientation: Tetrazolium dyes change colour on reduction, which living cells bring about.
Series [13] deals with HL-60. Briefly: Antiproliferative activity against human HL-60 cells at 1000 nM incubated for 72 hrs by MTT assay relative to control. Type of series: functional.
The subject of series [14] is HL-60. Briefly: Antiproliferative activity against human HL-60 cells at 100 nM incubated for 72 hrs by MTT assay relative to control. It counts as functional.
Series [15] relates to MV4-11. Nature of the series: Effect on cell cycle distribution in human MV4-11 cells assessed as accumulation at G0/G1 phase at 100 nM incubated for 72 hrs. Type of series: functional, cell-based.
The test system of series [16] is MV4-11. Briefly: Effect on cell cycle distribution in human MV4-11 cells assessed as decrease in accumulation at G2/M phase at 10 to 1000 nM incubated for 72 hrs. To be noted: dose 10-1000 nM. Type of series: functional, cell-based.
Series [17] relates to MV4-11. Briefly: Upregulation of CD11b expression in human MV4-11 cells at 10 nM incubated for 72 hrs. Type of series: functional, cell-based.
Series [18] has as its system MV4-11. Briefly: Upregulation of CD14 expression in human MV4-11 cells at 10 nM incubated for 72 hrs. It counts as functional, cell-based.
Series [19] concerns Rattus norvegicus. Briefly: Induction of calcium mobilization in bone of vitamin D-deficient Sprague-Dawley rat at 2340 pmol, ip administered daily for 4 days. It counts as functional, organism-based. The following applies: Bone element, time 4.0 day.
Series [20] concerns Rattus norvegicus. Nature of the series: Induction of calcium transport in intestine of vitamin D-deficient Sprague-Dawley rat at 260 pmol, ip administered daily for 4 days. It counts as functional, organism-based. To be noted: time 4.0 day.
The test system of series [21] is HCC4006. Briefly: Antiproliferative activity against human HCC4006 cells assessed as inhibition of cell proliferation at 100 nM incubated for 72 hrs by SRB assay relative to control. It counts as functional.
Series [22] concerns HCC4006. Briefly: Antiproliferative activity against human HCC4006 cells assessed as inhibition of cell proliferation at 1000 nM incubated for 72 hrs by SRB assay relative to control. Type of series: functional.
Series [23] in a line: Antiproliferative activity against human LUDLU-1 cells at 100 nM incubated for 72 hrs by SRB assay relative to control. It counts as functional.
Series [24] concerns NCI-H226. Nature of the series: Antiproliferative activity against human NCI-H226 cells at 100 nM incubated for 72 hrs by SRB assay relative to control. Type of series: functional.
Series [25] can be described thus: Antiproliferative activity against human LUDLU-1 cells at 1000 nM incubated for 72 hrs by SRB assay relative to control. Type of series: functional.
Series [26] concerns NCI-H226. Nature of the series: Antiproliferative activity against human NCI-H226 cells at 1000 nM incubated for 72 hrs by SRB assay relative to control. Type of series: functional.
Series [27] relates to MV4-11. Nature of the series: Effect on cell cycle distribution in human MV4-11 cells assessed as accumulation at G0/G1 phase at 10 nM incubated for 72 hrs. Type of series: functional, cell-based.
Series [28] concerns Rattus norvegicus. Briefly: Induction of calcium mobilization in bone of vitamin D-deficient Sprague-Dawley rat at 780 pmol, ip administered daily for 4 days. It counts as functional, organism-based. To be noted: Bone element, time 4.0 day.
In series [29] the test system is MV4-11. Nature of the series: Antiproliferative activity against human MV4-11 cells at 1 nM incubated for 72 hrs by MTT assay relative to control. It counts as functional.
Series [30] deals with MV4-11. Nature of the series: Antiproliferative activity against human MV4-11 cells at 10 nM incubated for 72 hrs by MTT assay relative to control. It counts as functional.
Series [31] relates to Rattus norvegicus. Nature of the series: Induction of calcium transport in intestine of vitamin D-deficient Sprague-Dawley rat at 780 pmol, ip administered daily for 4 days. It counts as functional, organism-based. The following applies: time 4.0 day.
Series [32] relates to MV4-11. Briefly: Effect on cell cycle distribution in human MV4-11 cells assessed as accumulation at G0/G1 phase at 1000 nM incubated for 72 hrs. It counts as functional, cell-based.

What is called IC50 is the point on the concentration scale where inhibition reaches its midpoint. A lower IC50 goes with inhibition by little substance. As usually defined, the inhibition is the share of the control response that was lost under treatment.

As for `C=C1[C@H](O)CC(=C/C=C2\CCC[C@@]3(C)[C@H]2CCCC[C@H]3[C@H](C)CCCC(C)(C)O)C[C@H]1O`, the Activity entry in series [1] is on record as “Active; Exhibited Higher Potency Than Calcitriol”; in [5], “Active; Maintained Its Activity At Constant Level In Tested Concentration But Without Statistical Significance For Lowest Concentrations”; in [6], “Active; Maintained Its Activity At Constant Level In Tested Concentration But Without Statistical Significance For Lowest Concentrations”; in [10], “Non-toxic”; in series [17], “Active; Exhibited Highest Expression”; in series [19], “Active; Second Most Potent Compound But Exhibited Less Activity Than Calcitriol”. In addition, in [20], the Activity entry is given as “Active; Second Most Potent Compound But Exhibited Less Activity Than Calcitriol”. In series [2], the midpoint of inhibition, the IC50, lay at 27.7 nM. Also, in series [3], the inhibition at 0.01 µM is 44.8%. Moreover, the inhibition at 0.001 µM in [4] is 39.1%. In addition, the inhibition at 0.1 µM came out at 31% in series [7], 32.6% in [11] and 35% in series [14]. The outcome in series [8] and in series [9] was inactive. In addition, the values for the inhibition at 1 µM in [12] and in series [13] were 50% and 47.6%, respectively. Moreover, the outcome in [15], in series [16] and in [18] was Active.

Consider `C=C1/C(=C\C=C2/CCC[C@]3(C)[C@@H]([C@H](C)CCCC(C)(C)O)CC[C@@H]23)C[C@@H](O)C[C@@H]1O` [CALCITRIOL], for which the inhibition at 0.01 µM in series [3] was found to be 30.4%. Also, the inhibition at 0.001 µM in series [4] came out at 10.1%. The inhibition at 0.1 µM in series [21] is 14%; in [23] it was 15%; in series [24], 15%; in series [11] it was 39.8%; in [14], 35.9%. Further, the inhibition at 1 µM in series [22] amounted to 17%; in [25], 10%; in [26] it was 10%; in [12] it was 48.8%; in series [13], 54.9%.

As to `C[C@H](CCCC(C)(C)O)[C@@H]1CCCC[C@H]2/C(=C/C=C3C[C@@H](O)C(=CCCO)[C@H](O)C3)CCC[C@@]21C`, the Activity entry is “Active; Exhibited Higher Potency Than Calcitriol” in [1], “Active; Most Potent Compound And Equal In Activity To Calcitriol” in series [28] and “Active; Most Potent Compound And Equal In Activity To Calcitriol” in series [20]. For the same compound, the inhibition at 0.01 µM in [3] came to 39.1%. Moreover, the inhibition at 0.001 µM in series [4] is 37.5%. Moreover, the inhibition at 0.1 µM in series [7] was determined as 21.3%; in series [11], 25.5%; in series [14], 22.1%. The outcome in series [8] and in series [9] was inactive. For the same compound, the inhibition at 1 µM in [12] is 32%; in series [13], 27.5%. Moreover, the outcome in [27], in series [16], in [17] and in series [18] was Active.

As for `C=C1/C(=C\C=C2/CCC[C@@]3(C)[C@H]2CCCC[C@H]3[C@H](C)CCCC(C)(C)O)C[C@@H](O)C[C@@H]1O`, in series [1], the Activity entry is “Active; Exhibited Higher Potency Than Calcitriol”. The compound further gave an IC50 in series [2] of 49.6 nM. Moreover, the figures for the inhibition at 0.1 µM in series [7], in [11] and in series [14] were 37.9%, 44.2% and 17.1%, respectively. Besides, the result in series [8], in series [9], in [28] and in series [31] was inactive. Further, the inhibition at 0.001 µM in series [29] was 23.7%. This compound also gave an inhibition at 0.01 µM in series [30] of 41%. In addition, the figures for the inhibition at 1 µM in series [12] and in [13] were 42.8% and 39.7%, respectively. For the same compound, the result in series [27], in series [15], in [16], in series [17] and in series [18] was Active.

In the case of `CC1[C@H](O)CC(=C/C=C2\CCC[C@@]3(C)[C@H]2CCCC[C@H]3[C@H](C)CCCC(C)(C)O)C[C@H]1O` (some centres undefined), the Activity result in [1] was “Not active; Exhibited Equal Or Slightly Less Potency Than Calcitriol; Exhibited Least Activity”. The compound further yielded an IC50 in series [2] of 82.6 nM. For the same compound, the inhibition at 0.1 µM in [7] stood at 29%; in [11] it was 39.7%; in [14], 20.5%. Moreover, the result in [8], in series [9], in series [17], in series [18], in series [19] and in series [31] was inactive. The inhibition at 1 µM in series [12] was found to be 29.7%; in series [13], 43.8%. The result in [32] and in [16] was Active.

On to `C[C@H](CCCC(C)(C)O)[C@@H]1CCCC[C@H]2/C(=C/C=C3C[C@@H](O)C[C@H](O)C3)CCC[C@@]21C`, for which the Activity entry in series [1] is “Active; Exhibited Equal Or Slightly Less Potency Than Calcitriol”; in series [10], “Non-toxic”; in [18], “Active; Exhibited Highest Expression”. In [2], this compound returned an IC50 of 45.2 nM. Also, the figures for the inhibition at 0.1 µM in series [7], in [11] and in series [14] were 30.8%, 25.3% and 17.9%, respectively. Moreover, the outcome in [8], in series [9], in series [19] and in series [31] was inactive. The inhibition at 1 µM in series [12] is 31.2%; in series [13], 24.2%. Besides, the result in series [27], in series [15], in series [32], in series [16] and in [17] was Active.
